Experimental data from PMC10698726 (Molecular Pharmaceutics, 2023).
Where two headings read alike, the source gives them in different places.

Tests used:
[1] = biological target: T1, OCT1 (Homo sapiens, UniProt O15245); assay: Inhibition of model substrate uptake in OCT1-overexpressing HEK293 cells; type: cell-based; set-up: expressed in transfected cells; host or cells: HEK293; conditions: for IC50: 2 μM ASP+ or ethambutol as model substrate; for IC50 / inhibition at 5 min, 20 μM: 5 min; for inhibition at 5 min, 20 μM / selectivity ratio at 5 min: human, OCT1-overexpressing HEK293 cells; for inhibition at 5 min, 20 μM: OCT1, 20 μM inhibitor; for selectivity ratio at 5 min: pH 7.4, ratio of the IC50 values of both isomers, label = isomer named in the cell (as a rule the one with the higher IC50), read-out: Stereoselectivity (x-fold for the named isomer)
T1 sequence (O15245 1-554): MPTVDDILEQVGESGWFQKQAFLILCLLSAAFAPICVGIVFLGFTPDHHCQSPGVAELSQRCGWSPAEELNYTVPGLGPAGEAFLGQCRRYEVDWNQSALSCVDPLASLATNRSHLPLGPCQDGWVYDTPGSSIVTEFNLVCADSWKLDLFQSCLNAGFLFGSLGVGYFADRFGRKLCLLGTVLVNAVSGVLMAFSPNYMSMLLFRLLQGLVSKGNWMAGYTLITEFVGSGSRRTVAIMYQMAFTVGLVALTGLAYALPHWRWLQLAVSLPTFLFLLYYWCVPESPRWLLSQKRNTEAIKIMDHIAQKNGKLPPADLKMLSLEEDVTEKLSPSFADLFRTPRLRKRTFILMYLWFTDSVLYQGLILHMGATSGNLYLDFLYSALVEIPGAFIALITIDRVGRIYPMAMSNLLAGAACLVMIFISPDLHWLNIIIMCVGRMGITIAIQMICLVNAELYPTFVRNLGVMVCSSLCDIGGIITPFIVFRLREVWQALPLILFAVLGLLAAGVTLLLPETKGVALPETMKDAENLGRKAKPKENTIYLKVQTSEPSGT
Description: Koepsell and Gorbulev (University of Würzburg, Germany).
Fluorescence quantification was performed in technical duplicates.

[2] = biological target: T2, OCT3 (Homo sapiens, UniProt O75751); assay: Inhibition of model substrate uptake in OCT3-overexpressing HEK293 cells; type: cell-based; conditions: for IC50: 2 μM ASP+ or ethambutol as model substrate
T2 construct: expressed in transfected cells; host or cells: HEK293
T2 sequence (O75751 1-556): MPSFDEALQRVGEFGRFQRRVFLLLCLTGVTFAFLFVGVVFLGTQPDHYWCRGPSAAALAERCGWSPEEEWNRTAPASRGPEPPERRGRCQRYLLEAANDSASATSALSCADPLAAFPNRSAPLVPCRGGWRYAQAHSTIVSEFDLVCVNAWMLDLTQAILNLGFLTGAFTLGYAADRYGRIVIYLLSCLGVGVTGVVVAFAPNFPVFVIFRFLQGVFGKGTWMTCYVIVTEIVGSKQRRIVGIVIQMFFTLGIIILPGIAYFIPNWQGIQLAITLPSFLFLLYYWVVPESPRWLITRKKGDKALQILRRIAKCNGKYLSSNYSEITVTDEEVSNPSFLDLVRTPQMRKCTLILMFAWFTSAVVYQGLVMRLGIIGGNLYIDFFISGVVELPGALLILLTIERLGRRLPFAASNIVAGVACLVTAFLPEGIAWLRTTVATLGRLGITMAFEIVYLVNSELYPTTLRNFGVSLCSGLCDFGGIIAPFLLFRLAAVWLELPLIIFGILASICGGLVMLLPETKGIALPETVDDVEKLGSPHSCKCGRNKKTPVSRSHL
Summary of the method: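 Transporter-overexpressing HEK293 cells were incubated 5 min in HBSS+ with 2 μM model substrate, with or without 20 μM inhibitor or increasing inhibitor concentrations. Uptake was read as ASP^+ fluorescence or by LC–MS/MS, with empty-vector uptake subtracted. IC50 came from a Hill fit of activity versus log concentration.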

[3] = pH 7.4, probe (S,S)-ethambutol (2 μM), (S,S)-Ethambutol inhibition [%], 2 μM (S,S)-ethambutol
[4] = pH 7.4, probe ASP+ (2 μM), 2 μM ASP+, mean of three experiments, read-out: ASP+ inhibition [%]
[5] = pH 7.4, probe sumatriptan (2 μM), 2 μM sumatriptan, read-out: Sumatriptan inhibition [%]
[6] = HEK293, 5 min, read-out: (S,S)-Ethambutol inhibition [%], OCT3, 20 μM inhibitor, 2 μM (S,S)-ethambutol, 5 min
[7] = HEK293, OCT3, 20 μM inhibitor, 2 μM ASP+, 5 min, read-out: ASP+ inhibition [%]

| SMILES | IC50 ([1]; IC50, OCT1, Table S5) [µM] | inhibition at 5 min, 20 μM [1, 3] [%] | inhibition at 5 min, 20 μM [1, 4] [%] | inhibition at 5 min, 20 μM [1, 5] [%] | selectivity ratio at 5 min ([1]; OCT1, Table S5) | inhibition at 20 µM [2, 6] [%] | inhibition at 20 µM [2, 7] [%] | IC50 ([2]; IC50, OCT3, Table S5, 5 min) [µM] | Stereoselectivity (x-fold for the named isomer) ([2]; OCT3, Table S5, ratio of the IC50 values of both isomers, label = isomer named in the cell (as a rule the one with the higher IC50)) [fold] | (S)-Zolmitriptan inhibition [%] ([2]; OCT3, 20 μM inhibitor, 2 μM (S)-zolmitriptan, 5 min) | IC50 ([1]; OCT1, Table S5, read-out: IC50) [µM] | inhibition at 20 µM ([2]; HEK293, 5 min, read-out: (S)-Zolmitriptan inhibition [%], OCT3, 20 μM inhibitor, 2 μM (S)-zolmitriptan, 5 min) [%] | IC50 ([2]; OCT3, Table S5, 5 min, read-out: IC50) [µM] | fold more potent in the inhibition of OCT3 than the respective counterpart ([2]; OCT3, label = the more potent enantiomer) [fold] |
| --- | --- | --- | --- | --- | --- | --- | --- | --- | --- | --- | --- | --- | --- | --- |
| CCN(CC)CC#CCOC(=O)[C@](O)(c1ccccc1)C1CCCCC1 [(R)-Oxybutynine] | 171 | 93.7 | 49.1 | 73 | 1.2 | 64.7 | 31.3 | 65 | 1.6 | 42.2 | – | – | – | – |
| CCCN[C@H]1CCc2nc(N)sc2C1 [(S)-Pramipexole] | – | 34.9 | 12.1 | 35.6 | 1.6 | 30.2 | 6.1 | – | – | – | 32.2 | 18.4 | – | – |
| CN(C)CCc1c[nH]c2ccc(C[C@H]3COC(=O)N3)cc12 [(S)-Zolmitriptan] | – | 26.9 | 10 | 44.5 | – | 55 | 38.5 | – | – | – | – | – | 17.3 | 25 |
